The values below come from a melting point compilation (Tetko et al.; mined from patent text by program, amines drawn as free bases though some values may be those of a salt).

`CN(c1nc2ccccc2c(=O)o1)c1ccccc1I`: the melting point (commonly the temperature, or range, at which the solid turns liquid) was in the range of 144 to 148 °C.

As to `CCCCCCC1OC(=O)c2cc(NC(C)=O)ccc21` (stereo not drawn), the melting point lay in the range of 135 to 137 °C. The result for `Cc1ccccc1C(=O)Nc1ccc(-n2nc(C(F)(F)F)cc2C2CC2)c(F)c1` reads 142 to 144 °C; that for `CCn1nc(-c2ccccc2)c(C(=O)O)c(Nc2cccnc2)c1=O`, 255 to 257 °C; that for `CC(CNc1ccc(Cl)cc1[N+](=O)[O-])SC#N` (stereo not drawn), 69 to 70 °C. The same measure for `C=C1C[C@@H]2[C@H](CC[C@]3(C)C(=O)CC[C@@H]23)[C@@]2(C)CCC(=O)C=C12`: 155 to 160 °C; for `CCOC(=O)Cn1cc2c(n1)CCN(C(=O)OC(C)(C)C)C2`: 90 to 91 °C. `CC(C)(C)OC(=O)N1CCC(N(Cc2ccccc2)S(N)(=O)=O)CC1`: the melting point lay in the range of 140 to 142 °C.

In the case of `COC1CCC2C3CCC4CC(=NO)C(C)CC4(C)C3CCC12C` (stereo not drawn), the melting point is 203 to 211 °C. The molecule `Cc1nn(-c2cncnc2)cc1N` registered a melting point of 211 to 215 °C. The same measure for `CCOC(=O)c1c(C)nn(C)c1SCc1ccccc1`: 55 to 56 °C; for `CCCOC(=O)c1cc(-c2ccc(Cl)cc2)cnc1C`: 54 to 57 °C; for `N#CC(C(=O)Nc1ccc(S(=O)C(F)(F)F)cc1)=C(O)C1CC1` (stereo not drawn): 155 to 157 °C. The result for `O=C(Cc1cc(C(F)(F)F)cc(C(F)(F)F)c1)N1CCN(C(=O)CNC2CCN(Cc3ccccc3)CC2)C(c2ccccc2)C1` (stereo not drawn) reads 49 to 52 °C. As to `CCCN1Cc2ccccc2C(=O)c2cc(CC(=O)O)ccc21`, the melting point is 126 °C. Molecule `Cn1c(CO)nc2ccc(Cl)nc21` gave a melting point of 204 to 210 °C. `CCCc1c(C(=O)OCC)sc(NC(=O)C(=O)OCC)c1[N+](=O)[O-]` returned a melting point of 73 to 75 °C. The result for `Cc1cccc(NC(=O)NC2N=C(C3CC3)c3cccc(C)c3N(CC(=O)N3CC4CCC(CC4)C3)C2=O)c1` (stereo not drawn) reads 172 to 174 °C; that for `Nc1nc2c([nH]c(=S)n2Cc2cccs2)c(=O)[nH]1`, over 280 °C. Molecule `O=CCOc1cccc(C(=O)O)c1` displayed a melting point of 120 to 130 °C. Take `Cc1nc(NC(=O)c2ccccc2)cn1CCCCC1(C(=O)NCC(F)(F)F)c2ccccc2-c2ccccc21`: the melting point was in the range of 145 to 147 °C. The same measure for `Nc1cccc2c1C1CC3(CCN1C2=O)OCCO3` (stereo not drawn): 76 °C; for `CC(NC(=O)C(CS)C(C)c1ccc(O)cc1)C(=O)O` (stereo not drawn): 72 °C. `CC(=O)OCC1OC(n2c(=O)sc3cnc(N)nc32)C(OC(C)=O)C1OC(C)=O` (stereo not drawn) showed a melting point of 121 to 123 °C. Regarding `COCCn1nc2c(N)nc3ccccc3c2c1CC(C)(C)N`, the melting point was in the range of 199 to 200 °C. `CCCC(=O)Nc1ccccc1C(F)(F)F` yielded a melting point of 76 °C. The molecule `Nc1ccc(S(=O)(=O)Nn2cc(-c3ccccc3)c3ccccc32)cc1` returned a melting point of 176 to 177 °C.

Regarding `CCOC(=O)COc1cc(OCC=C(C)C)ccc1C(=O)C=Cc1ccc(C(C)(C)C)cc1`, the melting point was in the range of 78 to 79 °C. In turn, `CN1CCN(C(=O)Cn2c(-c3cc(Cl)ccn3)nc3cccnc32)CC1` had a melting point of 174 to 175 °C. The same measure for `CCOC(=O)c1ccc(N(NC(C)=O)C(=O)OC(C)(C)C)cc1`: 105 to 108 °C; for `CCNC(=O)N1c2ccccc2CCC1CN1CCN(c2cccc3[nH]ccc23)CC1` (stereo not drawn): 109 to 112 °C; for `CCCCCCCCOc1cc2cc(CO)c(CO)c(-c3ccnc(Cl)c3)c2cc1OC`: 98 to 102 °C. The same measure for `CC(C)=CCC/C(C)=C/CSc1nc2cc(F)c(Cl)cc2[nH]1`: 122 to 124 °C. Take `COc1ccc(Nc2nc(N)nc3[nH]c4ccccc4c23)cc1`: the melting point stood at 209 °C. `Cc1nc(N2CCN(CCC3CC3)C2=O)sc1C(=O)NCc1cccnc1` yielded a melting point of 146 to 147 °C.

In the case of `CCCCNc1cccnc1S(N)(=O)=O`, the melting point fell in the range of 100 to 101 °C.

In turn, `Cc1ccc(C)c(COc2ccc(N)nn2)c1` had a melting point of 109 to 111 °C. The result for `Cc1cc2c(cc1S(=O)(=O)c1cc(Cl)cc(Cl)c1)OC(C(=O)O)O2` (stereo not drawn) reads 210 to 214 °C; that for `COc1cc(CNC(=O)c2nc3sccc3c(=O)[nH]2)ccc1Br`, 196 to 198 °C. `O=C(O)[C@@H]1OC(c2ccccc2)=N[C@H]1c1ccccc1` displayed a melting point of 135 °C. The same measure for `C#CCn1c(-c2cc(Cl)nc(Cl)c2)nc(C)c(CC)c1=O`: 143 to 144 °C; for `OCCCNc1cc(-c2ccnc(Nc3cccc(OC(F)(F)C(F)F)c3)n2)ccn1`: 141 to 145 °C. The molecule `CSC1C(=O)Nc2ccc(Oc3ccc(Cl)cc3)cc21` (stereo not drawn) registered a melting point of 166 to 169 °C. The same measure for `COCCN1CCN(c2cccc(-c3nc4cc(OC)cc(OC)c4c(=O)[nH]3)n2)CC1`: 99 to 101 °C; for `C#CC(=CC(=O)O)c1ccccc1`: 130 °C. The same measure for `CN(C)CCCN=C1CC(c2ccc(C(F)(F)F)cc2)Cc2[nH]c3ccc(Cl)cc3c(=O)c21` (stereo not drawn): 211 to 213 °C; for `CCCCCCCCCCCCCCOc1cccc(C(=O)Cl)c1`: 26 to 27 °C. `CN(Cc1cc[nH]n1)C1CCCN(C(=O)c2ccc(Nc3nccc(Nc4ccc(F)cc4)n3)cc2)C1` (stereo not drawn) had a melting point of 120 to 140 °C.

In turn, `Cc1c(C(=O)O)ccc2c1OC(c1ccccc1)(c1ccccc1)O2` gave a melting point of 263 to 265 °C. `O=C(O)CCCOc1ccc(Nc2ccccc2)cc1` returned a melting point of 110 to 111 °C.

For `COC(=O)C(=O)c1cn2c3c(cccc13)CCC2`, the melting point fell in the range of 105 to 108 °C. Consider `O=[N+]([O-])c1c(Cl)cccc1CS(=O)(=O)c1ccccc1`, for which the melting point was 141 to 142 °C. The molecule `CCCCCCCCCCCCCCCCCC(O)c1ccc(C2=NC(C)(C)CO2)c(Cl)c1` (stereo not drawn) registered a melting point of 74 to 78 °C. The same measure for `NC(=O)c1coc2ccccc2c1=O`: 220 to 225 °C. The same measure for `CCCCOCCOc1ccc(-c2ccc3c(c2)C=C(C(=O)OC)CCN3c2ccc(S(=O)(=O)NC)cc2)cc1`: 142 to 146 °C; for `CCC(=O)c1ccc(=O)[nH]c1C`: 173 to 175 °C. The same measure for `C=CCNc1ccnc2cn[nH]c12`: 230 to 232 °C. The molecule `O=C1NC(O)c2cc(Br)ccc21` (stereo not drawn) yielded a melting point of 258 to 261 °C. The result for `CCCc1nc2c(N)nc3cc(OCCN4CCCC4=O)ccc3c2s1` reads 163 to 166 °C; that for `CON(C)C(=O)/C=C/c1c(C2CC2)nc2ccccc2c1-c1ccc(F)cc1`, 141 °C; that for `CC(C)(C)c1ccc(S(=O)(=O)N2c3ccccc3C[C@H]2C(=O)NCc2cccc(OCCC(=O)O)c2)cc1`, 122 °C.

For the molecule `c1ccc(C2=Nc3cccnc3Nc3ccccc32)cc1`, the melting point fell in the range of 106 to 108 °C. The molecule `CCOc1ccc(NC=C(C#N)C(=O)Nc2cc(OC)c(Cl)cc2Cl)cc1Br` yielded a melting point of over 250 °C.

`CC(=O)Nc1cc(F)ccc1O` yielded a melting point of 185 to 186 °C. The result for `CN1CCN(c2cc(Sc3ccc(Cl)cc3)nc(-c3ccccc3)n2)CC1` reads 152 to 154 °C. The result for `OC(Cn1cncn1)(c1ccc(F)cc1F)C(F)(F)C(F)(F)F` (stereo not drawn) reads 95 to 96 °C; that for `Cn1c(=S)n(C)c(=O)n(-c2ccc(F)cc2F)c1=O`, 156 to 159 °C; that for `O=C(O)COc1ccc(C(=O)Nc2ccccc2Sc2ccccc2-c2nnn[nH]2)cc1`, 252 to 253 °C. Consider `CCOC(=O)c1ccc(I)nc1`, for which the melting point is 48 to 49 °C. `Nc1nc(Nc2ccc(SC3(Cl)C=CC(C(F)(F)F)=CN3)cc2)sc1C(=O)c1c(Cl)cc(C(F)(F)F)cc1Cl` (stereo not drawn) showed a melting point of 130 to 132 °C. Take `CCc1[nH]n(C2CCCC2)c2nc(-c3cccc(OCc4ccncc4)c3)nc(=O)c1-2`: the melting point was in the range of 230 to 232 °C. Molecule `CC(=O)NCc1cccc(-c2csc(N=C(N)N)n2)n1` registered a melting point of 198 to 200 °C. The result for `CC1(C)N=C(c2ccccc2Cl)c2cc(N)ccc2-n2cnnc21` reads 264 °C; that for `FC(F)(F)c1nc2cc(Cl)c(Cl)cc2[nH]1`, 225 to 230 °C; that for `COc1ccc(C(=CC#N)c2ccc(OC)c(OC)c2)cc1NC(C)=O`, 139 to 141 °C. The result for `CN1CCN(CCOc2ccccc2CC(=O)N2C[C@@H]3C(=O)CCC(c4ccccc4)(c4ccccc4)[C@@H]3C2)CC1` (racemic) reads 78 °C; that for `CC(=O)N(C(C)=O)C1=C(N2CCN(c3ccc(F)cc3)CC2)C(=O)c2ccccc2C1=O`, 149 to 150 °C. Molecule `N#Cc1cccc(CN2CCC(c3ccc(NC(=O)c4ccccc4-c4ccc(C(F)(F)F)cc4)cc3)CC2)c1` showed a melting point of 124 to 126 °C.

In turn, `O=C(O)COc1ccc2cc(CNC(=O)c3cnn(-c4ccc(Cl)cc4)c3C(F)(F)F)ccc2c1` returned a melting point of 189 to 191 °C. The molecule `COC(=O)CCC(C)(C)c1ccc(OC)c(NC(=O)C[C@H]2O[C@H](c3cccc(OC)c3OC)c3cc(Cl)ccc3N(CC(C)(C)COC(C)=O)C2=O)c1` showed a melting point of 157 to 158 °C. The same measure for `Cc1ccc(-c2[nH]c(-c3c(C)cc(C)cc3C)nc2-c2ccncc2)cc1`: 277 to 279 °C. The same measure for `CCOC(=O)CCc1ccc(O)c(OCc2ccccc2)c1`: 60 to 61 °C; for `CCOC(=O)/C=C/c1cn(Cc2ccc(OCc3nc(-c4ccccc4)oc3C)cc2)nc1OCc1ccc(OCc2nc(-c3ccccc3)oc2C)cc1`: 148 to 149 °C; for `Cn1c(=O)c2c(-c3ccccc3)n(-c3cc([N+](=O)[O-])ccc3N)cc2n(C)c1=O`: over 300 °C. The same measure for `Cc1nc(-n2cnn(Cc3ccc(F)cc3)c2=O)sc1C#N`: 190 to 192 °C; for `O=C1SC(Cc2ccc(OCCn3ccc4cccnc43)cc2)C(=O)N1C(c1ccccc1)(c1ccccc1)c1ccccc1` (stereo not drawn): 168 to 169 °C; for `CCCCC(C)c1cc(O)c2c(c1)OC(C)(C)CC2C1=CCN(Cc2ccc3ccccc3c2)CC1` (stereo not drawn): 49 to 52 °C. `COC1CCC2C3CCC4CC(=O)C(Cl)CC4(C)C3CCC12C` (stereo not drawn) had a melting point of 202 to 210 °C.
